Earlier results as cited in patent publication US8623868B2, “Processes of making and using pharmaceutical formulations of antineoplastic agents” (Merck Sharp & Dohme Corp., priority 2002, dated 2014).

Experiments:
[1] = test system: advanced melanoma; conditions: patients with advanced melanoma; Journal of Clinical Oncology 13(4) 1995
[2] = test system: advanced melanoma; conditions: patients having advanced melanoma; Newlands et al., Br J Cancer 1992

water solubility: water-insoluble
SMILES: Cn1nnc2c(C(N)=O)ncn2c1=O [Temozolomide]
clinical response achieved, % of patients [1]: 21%
clinical responses achieved, % of patients [2]: 17%
